Measured values: ChEMBL document CHEMBL1201862, “PubChem BioAssay data set” (2004)
The source made the active and inactive calls.

How the values were obtained:
[1] = molecular target: Potassium voltage-gated channel subfamily KQT member 2 (Rattus norvegicus, UniProt O88943); test: potentiation of rat KCNQ2 current – cell-based, retigabine-insensitive compounds, dose response (AID 2654); format: functional
[2] = molecular target: T1, Caspase-3 (Homo sapiens, UniProt P42574); test: activation of caspase-3 zymogen – biochemical, absorbance, dose response (AID 489014)
T1 sequence (P42574 whole entry): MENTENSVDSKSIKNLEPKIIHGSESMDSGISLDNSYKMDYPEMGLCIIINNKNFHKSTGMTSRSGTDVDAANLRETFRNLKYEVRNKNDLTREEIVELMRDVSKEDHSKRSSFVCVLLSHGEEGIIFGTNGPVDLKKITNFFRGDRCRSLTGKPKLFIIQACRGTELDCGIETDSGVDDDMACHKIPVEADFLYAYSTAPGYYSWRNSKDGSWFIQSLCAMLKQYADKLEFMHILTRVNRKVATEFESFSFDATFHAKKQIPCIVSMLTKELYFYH

[3] = molecular target: Caspase-7 (Homo sapiens, UniProt P55210); test: activation of caspase-7 zymogen – biochemical, absorbance, counter-screen for procaspase-3 activator project, dose response (AID 489013)
[4] = system: Staphylococcus aureus; test: Inhibitors of Bacterial Quorum Sensing Structure Activity Relationship (SAR) Analysis: Dose Response Assay. [Related pubchem assays: 700, 527 ]; format: functional, organism-based
[5] = molecular target: T2, SUMO-activating enzyme (Homo sapiens, UniProt Q9UBT2); test: blockers of UBC9-mediated SUMO conjugation – biochemical, AlphaScreen, SUMOylation inhibitor project, confirmation (AID 2018); format: functional
[6] = molecular target: T2, SUMO-activating enzyme; test: blockers of SAE1/SAE2–UBC9 SUMO transfer – biochemical, HTRF, uHTS, primary screen (AID 2006); format: protein-complex assay
[7] = molecular target: Protein-tyrosine kinase 2-beta (Homo sapiens, UniProt Q14289);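 further: potency of inhibitors of PYK2 kinase phosphorylation of poly-GT substrate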
[8] = molecular target: T3, Tyrosine-protein phosphatase non-receptor type 7 (Homo sapiens, UniProt P35236); test: Dose Response confirmation of compounds that inhibit HePTP. [Related pubchem assays (depositor defined):AID1059, AID1661, AID2085]; format: functional
T3 sequence (P35236 whole entry): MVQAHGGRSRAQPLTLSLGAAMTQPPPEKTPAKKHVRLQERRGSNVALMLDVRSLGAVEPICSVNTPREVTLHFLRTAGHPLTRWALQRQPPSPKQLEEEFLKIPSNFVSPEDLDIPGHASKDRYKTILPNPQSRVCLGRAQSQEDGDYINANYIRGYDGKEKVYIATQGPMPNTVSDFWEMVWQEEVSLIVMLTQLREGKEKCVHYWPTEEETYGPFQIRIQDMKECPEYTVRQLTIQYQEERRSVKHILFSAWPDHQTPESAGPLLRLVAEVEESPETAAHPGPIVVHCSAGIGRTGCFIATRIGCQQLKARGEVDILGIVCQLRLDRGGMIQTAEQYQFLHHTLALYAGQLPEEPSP

[9] = molecular target: Dual specificity protein phosphatase 3 (Homo sapiens, UniProt P51452); test: Dose Response Confirmation of compounds that inhibit VHR1 in Fluorescent Assay. [Related pubchem assays (depositor defined):AID1661, AID1878]; format: functional
[10] = molecular target: T4, Low molecular weight phosphotyrosine protein phosphatase (Homo sapiens, UniProt P24666); format: functional; conditions: read-out: IC50_Mean;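 further: Dose-response confirmation assay measuring inhibition of LMPTP enzyme activity by fluorescence intensity read-out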
T4 sequence (P24666 whole entry): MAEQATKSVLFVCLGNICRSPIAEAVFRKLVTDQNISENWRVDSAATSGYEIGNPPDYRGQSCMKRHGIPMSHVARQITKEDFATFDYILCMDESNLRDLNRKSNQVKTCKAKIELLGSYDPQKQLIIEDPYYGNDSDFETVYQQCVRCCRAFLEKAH

[11] = molecular target: T5, E3 ubiquitin-protein ligase XIAP (Homo sapiens, UniProt P98170); test: Counter Screen using XIAP-Bir3 for Chemical Antagonists of Bir1/2 domains of IAP-family anti-apoptotic proteins. [Related pubchem assays (depositor defined):AID1018, AID1449, AID1514, AID1638, AID1749, AID1750, AID488957, AID488963]
[12] = molecular target: T5, E3 ubiquitin-protein ligase XIAP; test: small molecules displacing peptide from XIAP – biochemical, IAP family, fluorescence polarization (AID 1018); format: functional
[13] = cells

T5 sequence (P98170 whole entry): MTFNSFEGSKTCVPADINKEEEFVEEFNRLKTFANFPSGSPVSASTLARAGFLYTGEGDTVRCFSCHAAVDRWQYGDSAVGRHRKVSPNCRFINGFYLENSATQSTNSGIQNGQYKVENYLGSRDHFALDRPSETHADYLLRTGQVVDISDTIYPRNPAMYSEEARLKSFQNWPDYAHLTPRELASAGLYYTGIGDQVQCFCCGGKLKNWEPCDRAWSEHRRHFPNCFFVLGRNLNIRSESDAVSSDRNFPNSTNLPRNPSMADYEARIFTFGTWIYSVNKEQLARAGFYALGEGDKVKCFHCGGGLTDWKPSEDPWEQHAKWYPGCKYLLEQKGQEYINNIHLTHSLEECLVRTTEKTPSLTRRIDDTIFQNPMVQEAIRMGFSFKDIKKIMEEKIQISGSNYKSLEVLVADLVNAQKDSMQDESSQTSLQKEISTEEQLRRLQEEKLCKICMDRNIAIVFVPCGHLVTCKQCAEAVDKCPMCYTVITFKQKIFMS
T2 sequence (Q9UBE0 whole entry): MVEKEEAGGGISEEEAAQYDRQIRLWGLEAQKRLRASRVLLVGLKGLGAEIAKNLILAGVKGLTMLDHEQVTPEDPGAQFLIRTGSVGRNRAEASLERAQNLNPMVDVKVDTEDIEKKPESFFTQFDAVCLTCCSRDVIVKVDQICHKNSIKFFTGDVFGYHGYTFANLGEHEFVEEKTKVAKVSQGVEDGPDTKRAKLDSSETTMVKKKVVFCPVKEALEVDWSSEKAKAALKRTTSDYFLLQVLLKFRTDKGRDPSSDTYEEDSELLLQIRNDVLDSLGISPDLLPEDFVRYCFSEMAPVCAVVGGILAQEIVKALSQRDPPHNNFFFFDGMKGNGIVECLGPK
T2 sequence (Q9UBT2 whole entry): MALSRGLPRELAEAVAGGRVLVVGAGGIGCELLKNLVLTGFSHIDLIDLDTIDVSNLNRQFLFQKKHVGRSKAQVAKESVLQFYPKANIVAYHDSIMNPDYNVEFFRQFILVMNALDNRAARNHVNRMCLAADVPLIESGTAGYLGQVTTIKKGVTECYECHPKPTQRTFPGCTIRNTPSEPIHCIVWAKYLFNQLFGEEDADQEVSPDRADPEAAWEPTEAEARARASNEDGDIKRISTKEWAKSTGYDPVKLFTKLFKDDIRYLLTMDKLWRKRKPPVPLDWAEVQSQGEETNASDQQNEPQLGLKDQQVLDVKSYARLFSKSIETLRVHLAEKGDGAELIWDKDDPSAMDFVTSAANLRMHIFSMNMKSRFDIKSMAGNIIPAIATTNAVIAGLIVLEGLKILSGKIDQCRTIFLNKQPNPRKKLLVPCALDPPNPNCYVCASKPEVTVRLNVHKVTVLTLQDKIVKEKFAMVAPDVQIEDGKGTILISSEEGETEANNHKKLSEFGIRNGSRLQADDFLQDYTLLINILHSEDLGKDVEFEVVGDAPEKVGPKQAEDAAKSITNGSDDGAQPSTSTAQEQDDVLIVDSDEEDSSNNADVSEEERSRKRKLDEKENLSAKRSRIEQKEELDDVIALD
Protein-tyrosine kinase 2-beta, sequence (Q14289 whole entry): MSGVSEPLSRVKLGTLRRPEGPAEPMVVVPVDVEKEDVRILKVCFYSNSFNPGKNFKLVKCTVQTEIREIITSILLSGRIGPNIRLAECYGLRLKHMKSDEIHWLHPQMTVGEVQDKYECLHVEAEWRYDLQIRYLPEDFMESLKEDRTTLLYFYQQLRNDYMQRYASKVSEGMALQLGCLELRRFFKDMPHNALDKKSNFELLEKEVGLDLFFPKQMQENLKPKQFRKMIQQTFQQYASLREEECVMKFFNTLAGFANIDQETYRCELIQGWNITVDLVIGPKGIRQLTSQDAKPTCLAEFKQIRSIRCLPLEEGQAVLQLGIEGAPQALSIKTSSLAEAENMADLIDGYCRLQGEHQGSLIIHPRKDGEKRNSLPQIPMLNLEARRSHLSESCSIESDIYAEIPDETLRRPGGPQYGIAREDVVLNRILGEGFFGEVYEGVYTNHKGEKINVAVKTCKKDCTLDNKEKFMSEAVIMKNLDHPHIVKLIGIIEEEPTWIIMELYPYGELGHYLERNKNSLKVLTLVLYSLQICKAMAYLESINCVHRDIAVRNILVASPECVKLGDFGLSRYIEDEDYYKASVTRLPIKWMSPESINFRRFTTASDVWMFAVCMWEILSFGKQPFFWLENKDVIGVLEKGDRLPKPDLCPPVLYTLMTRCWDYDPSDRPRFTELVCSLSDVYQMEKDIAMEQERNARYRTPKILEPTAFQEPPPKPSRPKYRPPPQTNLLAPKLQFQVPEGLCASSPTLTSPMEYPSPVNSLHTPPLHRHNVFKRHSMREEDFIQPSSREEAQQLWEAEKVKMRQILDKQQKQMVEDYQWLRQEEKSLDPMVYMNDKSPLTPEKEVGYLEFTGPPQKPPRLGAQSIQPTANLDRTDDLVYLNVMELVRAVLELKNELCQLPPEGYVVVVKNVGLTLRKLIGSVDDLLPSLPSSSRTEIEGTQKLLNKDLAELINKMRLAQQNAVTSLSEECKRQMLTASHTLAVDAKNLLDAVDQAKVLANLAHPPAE
Dual specificity protein phosphatase 3, sequence (P51452 whole entry): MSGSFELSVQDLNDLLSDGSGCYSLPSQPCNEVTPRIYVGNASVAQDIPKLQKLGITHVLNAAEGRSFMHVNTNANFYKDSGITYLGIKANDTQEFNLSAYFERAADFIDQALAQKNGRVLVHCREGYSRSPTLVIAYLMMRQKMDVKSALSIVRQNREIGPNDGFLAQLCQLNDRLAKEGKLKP
Potassium voltage-gated channel subfamily KQT member 2, sequence (O88943 whole entry): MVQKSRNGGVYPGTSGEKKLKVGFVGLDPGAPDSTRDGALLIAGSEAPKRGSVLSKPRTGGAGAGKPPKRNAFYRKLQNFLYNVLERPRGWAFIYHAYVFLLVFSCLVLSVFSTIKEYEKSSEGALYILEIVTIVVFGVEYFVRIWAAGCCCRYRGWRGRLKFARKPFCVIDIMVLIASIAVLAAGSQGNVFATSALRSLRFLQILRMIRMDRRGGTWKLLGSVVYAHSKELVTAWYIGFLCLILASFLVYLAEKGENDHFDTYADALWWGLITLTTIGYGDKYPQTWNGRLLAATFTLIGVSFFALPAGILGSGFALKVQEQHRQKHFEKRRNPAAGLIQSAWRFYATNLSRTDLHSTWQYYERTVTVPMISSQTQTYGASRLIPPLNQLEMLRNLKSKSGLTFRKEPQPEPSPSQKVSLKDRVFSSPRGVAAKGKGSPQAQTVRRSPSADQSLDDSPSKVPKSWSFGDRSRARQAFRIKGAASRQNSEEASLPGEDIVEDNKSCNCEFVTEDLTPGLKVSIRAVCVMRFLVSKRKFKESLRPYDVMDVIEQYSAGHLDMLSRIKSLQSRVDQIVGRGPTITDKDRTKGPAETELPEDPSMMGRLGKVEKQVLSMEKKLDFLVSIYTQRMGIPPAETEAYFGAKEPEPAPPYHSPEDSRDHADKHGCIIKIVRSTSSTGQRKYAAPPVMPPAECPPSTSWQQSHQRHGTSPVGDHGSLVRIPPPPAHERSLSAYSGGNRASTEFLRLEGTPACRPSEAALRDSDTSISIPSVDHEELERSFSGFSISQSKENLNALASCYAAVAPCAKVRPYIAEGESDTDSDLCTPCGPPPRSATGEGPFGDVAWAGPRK
Caspase-7, sequence (P55210 24-198 limits assumed): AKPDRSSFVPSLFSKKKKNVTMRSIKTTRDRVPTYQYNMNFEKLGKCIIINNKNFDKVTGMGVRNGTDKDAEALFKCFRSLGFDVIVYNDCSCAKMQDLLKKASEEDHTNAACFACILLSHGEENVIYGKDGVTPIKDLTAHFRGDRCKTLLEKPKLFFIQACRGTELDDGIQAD
Caspase-7, sequence (P55210 207-303 limits assumed): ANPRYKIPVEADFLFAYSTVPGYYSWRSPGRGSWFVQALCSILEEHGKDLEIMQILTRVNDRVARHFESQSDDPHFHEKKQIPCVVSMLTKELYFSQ

For `COc1ccc(NC(=O)Nc2cccnc2)cc1`, the EC50 [1] was 203 µM (active).
For `CC1(C)Cc2c(c(N3CCCC3)nc3sc(C(=O)Nc4ccccc4)c(N)c23)CO1`, the EC50 [2] was > 85.3 µM (inactive) and the EC50 [3] was > 85.3 µM (inactive).
With `O=C(Nc1ccc2c(c1)OCO2)C(c1ccccc1)N1CCC(Cc2ccccc2)CC1` (stereo not drawn) the IC50 [4] was 0.802 µM (active).
With `O=C(Cn1c2ccccc2c(=O)c2ccccc21)N/N=C/c1cc([N+](=O)[O-])ccc1N1CCCCCC1` the IC50 [5] was 6.12 µM (active), the IC50 [6] was 24.9 µM (active) and the IC50 [7] was 1.94 µM (active).
In the case of `O=C(Nc1ccncc1)c1cc(-c2ccccn2)nc2ccc(Br)cc12`, the IC50 [8] is reported as 1.52 µM (active), the IC50 [9] is reported as 9.44 µM (active) and the IC50 [10] is reported as 26.3 µM (inactive).
In the case of `COc1ccc(CC(=O)Oc2cc(C)nc(O)c2[N+](=O)[O-])cc1`, the IC50 [11] is reported as > 100 µM (inactive) and the IC50 [12] is reported as > 100 µM (not active).
For `O=C1c2ccccc2C(Nc2cccnc2)N1Cc1ccc2c(c1)OCO2` (stereo not drawn), the IC50 [13] was 21.6 µM (active).
